Results published in paper PMC3537142 (EMBO Reports, 2012).
Changes are numbered by the printed parent chain.

What was measured:
[1] = molecular target: T1, 5HTBP construct A1 B2 D1W (Aplysia californica, UniProt Q8WSF8, K160T/S111E/V159L/Y72W); assay: SPR biosensor assay; conditions: construct A1B2D1W; stated for both [3H]granisetron binding and SPR
T1 sequence (Q8WSF8 20-236 Y72W/S111E/V159L/K160T): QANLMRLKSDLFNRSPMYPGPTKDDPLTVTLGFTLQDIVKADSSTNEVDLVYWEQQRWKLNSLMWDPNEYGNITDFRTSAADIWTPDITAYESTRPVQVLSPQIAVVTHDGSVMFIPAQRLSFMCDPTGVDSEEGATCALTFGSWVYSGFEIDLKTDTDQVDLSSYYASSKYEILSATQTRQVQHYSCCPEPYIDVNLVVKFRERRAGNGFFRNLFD

AChBPs = conditions: ref [4], [5]; cited from earlier work
[2] = molecular target: T2, 5HTBP construct D2 (Y53W, Q55R) (Aplysia californica, UniProt Q8WSF8, Q74R/Y72W); assay: Competition binding with [3H]granisetron; conditions: read-out: Granisetron Ki, [3H]granisetron binding
T2 sequence (Q8WSF8 20-236 Y72W/Q74R): T1 sequence (Q8WSF8 20-236 Y72W/S111E/V159L/K160T) with Q55R, E92S, L140V, T141K

[3] = molecular target: T3, 5HTBP construct A1 (S92E) (Aplysia californica, UniProt Q8WSF8, S111E); assay: Competition binding with [3H]granisetron; conditions: read-out: Ki, [3H]granisetron binding; single mutant construct A1 (S92E)
T3 sequence (Q8WSF8 20-236 S111E): T1 sequence (Q8WSF8 20-236 Y72W/S111E/V159L/K160T) with W53Y, L140V, T141K

[4] = molecular target: T4, construct A2NE (Y91N, S92E) (Aplysia californica, UniProt Q8WSF8, S111E/Y110N); assay: [3H]granisetron binding to single-loop construct
T4 sequence (Q8WSF8 20-236 Y110N/S111E): T1 sequence (Q8WSF8 20-236 Y72W/S111E/V159L/K160T) with W53Y, Y91N, L140V, T141K

construct C5 = molecular target: T5, construct C5 (Aplysia californica, UniProt Q8WSF8, C207M/C208E/E210S/P209S/P211N); assay: [3H]granisetron binding to single-loop construct
T5 sequence (Q8WSF8 20-236 C207M/C208E/P209S/E210S/P211N): T1 sequence (Q8WSF8 20-236 Y72W/S111E/V159L/K160T) with W53Y, E92S, L140V, T141K, C188M, C189E, P190S, E191S, P192N

construct C6 = molecular target: T6, construct C6 (Aplysia californica, UniProt Q8WSF8, C207E/C208S/E210N/INS206M/P209S/P211Y); assay: [3H]granisetron binding to single-loop construct
T6 sequence (Q8WSF8 with tags, fused parts or gaps INS206M/C207E/C208S/P209S/E210N/P211Y): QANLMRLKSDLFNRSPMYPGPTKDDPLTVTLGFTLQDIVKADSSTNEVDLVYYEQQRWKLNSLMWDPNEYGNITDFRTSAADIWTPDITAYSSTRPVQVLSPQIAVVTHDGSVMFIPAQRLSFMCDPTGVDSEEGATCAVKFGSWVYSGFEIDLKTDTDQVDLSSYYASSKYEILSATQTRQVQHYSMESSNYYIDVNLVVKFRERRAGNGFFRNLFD

construct E3 = molecular target: T7, construct E3 (Aplysia californica, UniProt Q8WSF8, I123Y/I135Y/V125Y); assay: [3H]granisetron binding to single-loop construct
T7 sequence (Q8WSF8 20-236 I123Y/V125Y/I135Y): T1 sequence (Q8WSF8 20-236 Y72W/S111E/V159L/K160T) with W53Y, E92S, I104Y, V106Y, I116Y, L140V, T141K

construct E1 = molecular target: T8, construct E1 (Aplysia californica, UniProt Q8WSF8, I135Y); assay: [3H]granisetron binding to single-loop construct
T8 sequence (Q8WSF8 20-236 I135Y): T1 sequence (Q8WSF8 20-236 Y72W/S111E/V159L/K160T) with W53Y, E92S, I116Y, L140V, T141K

5HTBP construct A1 B2 D2 = molecular target: T9, 5HTBP construct A1 B2 D2 (Aplysia californica, UniProt Q8WSF8, K160T/Q74R/S111E/V159L/Y72W); assay: Competition binding with [3H]granisetron; conditions: NB = no binding
T9 sequence (Q8WSF8 20-236 Y72W/Q74R/S111E/V159L/K160T): T1 sequence (Q8WSF8 20-236 Y72W/S111E/V159L/K160T) with Q55R

Compound | increase in the affinity compared with wild-type Ac-AChBP [1] | lower affinity than acetylcholine (AChBPs) | Ki [2] | Ki [3] | [3H]granisetron binding [4] | [3H]granisetron binding (construct C5) | [3H]granisetron binding (construct C6) | [3H]granisetron binding (construct E3) | [3H]granisetron binding (construct E1) | Granisetron Ki, [3H]granisetron binding (5HTBP construct A1 B2 D2)
NCCc1c[nH]c2ccc(O)cc12 [Serotonin, 5-hydroxytryptamine] | ~40 fold | ~60 fold |  |  |  |  |  |  |  | 
CN1C2CCCC1CC(NC(=O)c1nn(C)c3ccccc13)C2 (stereo not shown) [[^3H]granisetron, [3H]BRL-43694] |  |  | 454 ± 71 nM | 270 ± 51 nM | failed to bind | did not show detectable [^3H]granisetron binding | did not show detectable [^3H]granisetron binding | no detectable [^3H]granisetron binding | no detectable [^3H]granisetron binding | no longer bound
